# Reference: patent US20030162222A1, “Method for selecting enzyme inhibitors” (priority 2000, published 2003)
# Legend:
# [1] = tested on: Src kinases; conditions: partly from the literature; cited from earlier work
# [2] = tested on: 32D cells which express the mutant Bcr-Abl T315M; assay: Proliferation and survival of 32D cells expressing mutant Bcr-Abl T315M in the absence of interleukin-3; format: cell-based, murine; conditions: 32D cells expressing Bcr-Abl T315M; no interleukin-3; PP1 25 μM or STI571 1 μM
# Protocol: (§1) Bcr-Abl is a constitutionally active tyrosine kinase which induces different forms of leukaemia in the animal model and humans.
# (§2) The example is carried out by transfixing 32D cells with a plasmid by electroporation, i.e. with the aid of a current pulse. The plasmid codes for either wt Bcr-Abl or e.g. for the mutant T315M. These plasmids additionally carry a resistance marker; in this case a puromycin resistance gene. Transfixed cells are therefore selected by means of puromycin.
# (§3) The cells are then characterised biologically. For this purpose interleukin-3 is removed from them as an essential survival and growth factor.
# (§4) Both substances prevent both proliferation and survival of cells which express Bcr-Abl wt, and do so to the same extent (FIGS. 17 and 18).
# [3] = tested on: 32D cells which express wt Bcr-Abl; assay: Proliferation and survival of 32D cells expressing wt Bcr-Abl in the absence of interleukin-3; format: cell-based, murine; conditions: 32D cells expressing Bcr-Abl wt; no interleukin-3; PP1 25 μM or STI571 1 μM
# Protocol: as §1, §2, §3, §4
smiles,measurement,setting,value
Cc1ccc(-c2nn(C(C)(C)C)c3ncnc(N)c23)cc1 [PP1],inhibition of Src kinases,[1],inhibited
same,proliferation (cell growth),[2],complete cessation of cell growth
same,proliferation of cells,[3],prevent
